Experiment [1] in a line: Ratio of the least sensitive cell to the most sensitive cell. It is filed as functional.
The test system of another experiment is IGROV-1. The experiment in a line: In vitro anticancer activity against IGROV1 ovarian cancer cell line. The experiment is classed as functional. To be noted: Homo sapiens.
Experiment [2] deals with NCI-H322M. The experiment in a line: In vitro anticancer activity against NCI-H322M non-small cell lung cancer cell line. To be noted: Homo sapiens. It is filed as functional.
The next experiment concerns ACHN. The experiment in a line: In vitro anticancer activity against ACHN renal cancer cell line. It is filed as functional. Conditions: Homo sapiens.
In experiment [3] the test system is SR. The experiment in a line: In vitro anticancer activity against SR Leukemia cancer cell line. It is filed as functional. Conditions: Homo sapiens.
The subject of experiment [4] is U-251. The experiment in a line: In vitro anticancer activity against U-251 CNS cancer cell line; Least sensitive cell. It is filed as functional. Conditions: Homo sapiens.
Another experiment deals with Hs-578T. The experiment in a line: In vitro anticancer activity against Hs 578.T breast cancer cell line. It is filed as functional. To be noted: Homo sapiens.
The subject of experiment [5] is RPMI-8226. The experiment in a line: In vitro anticancer activity against RPMI-8226 Leukemia cancer cell line. The experiment is classed as functional. To be noted: Homo sapiens.
The subject of a further experiment is COLO 205. The experiment in a line: In vitro anticancer activity against COLO 205 colon cancer cell line. It is filed as functional. Conditions: Homo sapiens.
In the next experiment the test system is MDA-MB-435. The experiment in a line: In vitro anticancer activity against MDA-MB-435 breast cancer cell line. Conditions: Homo sapiens. The experiment is classed as functional.
A further experiment has as its system DU-145. The experiment in a line: In vitro anticancer activity against DU-145 prostate cancer cell line. To be noted: Homo sapiens. It is filed as functional.
Experiment [6] concerns LOX IMVI. The experiment in a line: In vitro anticancer activity against LOX IMVI melanoma cancer cell line; Most sensitive cell. The experiment is classed as functional. Conditions: Homo sapiens.
In another experiment the test system is PC-3. The experiment in a line: In vitro anticancer activity against PC-3 prostate cancer cell line. To be noted: Homo sapiens. The experiment is classed as functional.
The test system of another experiment is Malme-3M. The experiment in a line: In vitro anticancer activity against MALME-3M melanoma cancer cell line. The experiment is classed as functional. Conditions: Homo sapiens.
The subject of a further experiment is SW-620. The experiment in a line: In vitro anticancer activity against SW-620 colon cancer cell line. To be noted: Homo sapiens. It is filed as functional.
The subject of experiment [7] is HOP-62. The experiment in a line: In vitro anticancer activity against HOP-62 non-smallcell lung cancer cell line. The experiment is classed as functional. To be noted: Homo sapiens.
A further experiment relates to TK-10. The experiment in a line: In vitro anticancer activity against TK-10 renal cancer cell line. It is filed as functional. Conditions: Homo sapiens.
The test system of experiment [8] is SNB-19. The experiment in a line: In vitro anticancer activity against SNB-19 CNS cancer cell line. The experiment is classed as functional. To be noted: Homo sapiens.
Experiment [9] concerns RPMI-8226. The experiment in a line: In vitro anticancer activity against RPMI-8226 Leukemia cancer cell line; Most sensitive cell. To be noted: Homo sapiens. It is filed as functional.
Experiment [10] has as its system U-251. The experiment in a line: In vitro anticancer activity against U-251 CNS cancer cell line. To be noted: Homo sapiens. It is filed as functional.
A further experiment concerns SK-OV-3. The experiment in a line: In vitro anticancer activity against SK-OV-3 ovarian cancer cell line. It is filed as functional. Conditions: Homo sapiens.
Experiment [11] has as its system LOX IMVI. The experiment in a line: In vitro anticancer activity against LOX IMVI melanoma cancer cell line. It is filed as functional. To be noted: Homo sapiens.
Experiment [12] deals with SNB-19. The experiment in a line: In vitro anticancer activity against SNB-19 CNS cancer cell line; Leaset sensitive cell. It is filed as functional. Conditions: Homo sapiens.
Experiment [13] deals with SNB-19. The experiment in a line: In vitro anticancer activity against SNB-19 CNS cancer cell line; Least sensitive cell. It is filed as functional. Conditions: Homo sapiens.
For experiment [14], the system named is HOP-62. The experiment in a line: In vitro anticancer activity against HOP-62 non-smallcell lung cancer cell line; Least sensitive cell. The experiment is classed as functional. To be noted: Homo sapiens.
The test system of experiment [15] is NCI-H322M. The experiment in a line: In vitro anticancer activity against NCI-H322M non-small cell lung cancer cell line; Least sensitive cell. It is filed as functional. To be noted: Homo sapiens.
The test system of experiment [16] is SR. The experiment in a line: In vitro anticancer activity against SR leukemia cancer cell line. It is filed as functional. Conditions: Homo sapiens.
In experiment [17] the test system is RPMI-8226. The experiment in a line: In vitro anticancer activity against RPMI-8226 leukemia cancer cell line; Most sensitive cell. It is filed as functional. Conditions: Homo sapiens.
Experiment [18] has as its system Panel leukemia (Carcinoma cell lines). The experiment in a line: Compound was evaluated for in vitro anticancer activity against leukemia cell lines. It is filed as functional, cell-based.
Experiment [19] deals with SR. The experiment in a line: In vitro anticancer activity against SR leukemia cancer cell line; Most sensitive cell. The experiment is classed as functional. Conditions: Homo sapiens.
Experiment [20] has as its system HOP-62. The experiment in a line: In vitro anticancer activity against HOP-62 non-small cell lung cancer cell line. To be noted: Homo sapiens. It is filed as functional.
Experiment [21] deals with RPMI-8226. The experiment in a line: In vitro anticancer activity against RPMI-8226 leukemia cancer cell line. The experiment is classed as functional. To be noted: Homo sapiens.

The source of these data is ChEMBL document CHEMBL1130608, “Synthesis and anticancer evaluation of certain gamma-aryloxymethyl-alpha-methylene-gamma-phenyl-gamma-butyrolactones” (1998).

Turning to `C=C1CC(COc2ccccc2)(c2ccccc2)OC1=O` (stereo not given), the Ratio in experiment [1] is on record as 1.06. The GI50 with IGROV-1 was 14100 nM; in the experiment with NCI-H322M [2], 15500 nM; in the experiment on ACHN it was 1740 nM; in the experiment with SR [3], 3240 nM; with U-251 [4], 17400 nM; in the experiment on Hs-578T, 11700 nM. The GI50 in the experiment on RPMI-8226 [5] was 1950 nM; with COLO 205 it was 1740 nM; with MDA-MB-435, 7410 nM; with DU-145 it was 15100 nM; with LOX IMVI [6] it was 1510 nM; in the experiment with PC-3, 2140 nM. Moreover, the GI50 with Malme-3M was 10500 nM; in the experiment with SW-620, 1950 nM; in the experiment on HOP-62 [7], 14800 nM; with TK-10, 3160 nM; in the experiment with SNB-19 [8], 11200 nM.

Consider `C=C1CC(COc2ccc3cccc(O)c3n2)(c2ccccc2)OC1=O` (stereo not given), for which the Ratio in [1] is given as 3.01. Also, the GI50 is 1660 nM with IGROV-1; 8510 nM in the experiment with NCI-H322M [2]; 1510 nM with ACHN; 724 nM with SR [3]; 2290 nM with Hs-578T; 14.1 nM with RPMI-8226 [9]. Further, the concentration for 50% growth inhibition (GI50) in the experiment on COLO 205 is 1780 nM; in the experiment with MDA-MB-435, 2000 nM; with DU-145, 11200 nM; in the experiment on U-251 [10], 1820 nM; in the experiment with PC-3, 3090 nM; in the experiment on Malme-3M, 1700 nM. Further, the concentration for 50% growth inhibition (GI50) was 1860 nM in the experiment with SW-620; 7080 nM with SK-OV-3; 2140 nM in the experiment with HOP-62 [7]; 7080 nM in the experiment with TK-10; 1290 nM in the experiment on LOX IMVI [11]; 14500 nM in the experiment on SNB-19 [12].

`C=C1CC(COc2cccc3ccc(C)nc23)(c2ccccc2)OC1=O` (stereo not given): the GI50 with SNB-19 [13] was 17000 nM; in the experiment with IGROV-1, 1780 nM; in the experiment on NCI-H322M [2] it was 12000 nM; in the experiment on ACHN it was 1580 nM; in the experiment on SR [3] it was 776 nM; in the experiment on Hs-578T, 2000 nM. The GI50 was 10 nM in the experiment with RPMI-8226 [9]; 2240 nM in the experiment on COLO 205; 3020 nM with MDA-MB-435; 5620 nM in the experiment with DU-145; 1780 nM with U-251 [10]; 2950 nM in the experiment on PC-3. In addition, the 50% growth inhibitory concentration (GI50) is 1700 nM in the experiment on Malme-3M; 1480 nM with SW-620; 6760 nM in the experiment with SK-OV-3; 3240 nM in the experiment with HOP-62 [7]; 2090 nM with TK-10; 1450 nM in the experiment with LOX IMVI [11]. Also, the Ratio in [1] turned out to be 3.23.

As to `C=C1CC(COc2ccc3ccccc3c2)(c2ccccc2)OC1=O` (stereo not given), the Ratio in experiment [1] was 1.1. The GI50 in the experiment on IGROV-1 is 1550 nM; in the experiment with NCI-H322M [2] it was 12900 nM; in the experiment on ACHN, 4370 nM; in the experiment with SR [3], 3310 nM; with Hs-578T it was 3890 nM; in the experiment on RPMI-8226 [5], 2240 nM. Also, the GI50 in the experiment with COLO 205 was 1950 nM; in the experiment on MDA-MB-435, 2880 nM; in the experiment with HOP-62 [14], 18200 nM; in the experiment on DU-145, 12000 nM; in the experiment on LOX IMVI [6], 1450 nM; in the experiment on U-251 [10] it was 2820 nM. For the same compound, the GI50 in the experiment with PC-3 was 6460 nM; in the experiment with Malme-3M it was 3390 nM; in the experiment with SW-620, 1910 nM; in the experiment on SK-OV-3 it was 7590 nM; in the experiment on TK-10 it was 2880 nM; in the experiment on SNB-19 [8], 10500 nM.

For the compound `C=C1CC(COc2cccc3cccnc23)(c2ccccc2)OC1=O` (stereo not given), the Ratio in [1] is on record as 2.87. Besides, the GI50 with IGROV-1 is 1550 nM; in the experiment with ACHN it was 1620 nM; with Hs-578T it was 1480 nM; in the experiment with COLO 205, 1510 nM; with MDA-MB-435 it was 2140 nM; with NCI-H322M [15] it was 14800 nM. Also, the GI50 with DU-145 is 3800 nM; with U-251 [10], 2140 nM; in the experiment on PC-3, 1580 nM; in the experiment on SR [16], 245 nM; in the experiment on Malme-3M, 1510 nM; with SW-620, 1070 nM. Further, the 50% growth inhibitory concentration (GI50) in the experiment with SK-OV-3 is 9330 nM; in the experiment on RPMI-8226 [17], 19.9 nM; in the experiment with HOP-62 [7] it was 5130 nM; in the experiment with TK-10 it was 1660 nM; in the experiment on LOX IMVI [11] it was 1350 nM; in the experiment on SNB-19 [8], 12000 nM.

In [18], CARBOPLATIN returned a GI50 of 107000 nM.

The compound CISPLATIN gave a GI50 in experiment [18] of 4470 nM.

Turning to `C=C1CC(COc2cccc3ccccc23)(c2ccccc2)OC1=O` (stereo not given), the Ratio in experiment [1] stood at 1.84. For the same compound, the GI50 was 1620 nM in the experiment on IGROV-1; 4370 nM in the experiment with ACHN; 6920 nM in the experiment on Hs-578T; 3160 nM in the experiment on COLO 205; 1740 nM with MDA-MB-435; 15800 nM in the experiment with NCI-H322M [15]. The GI50 was 229 nM in the experiment on SR [19]; 11200 nM in the experiment with DU-145; 15500 nM with HOP-62 [20]; 3550 nM with U-251 [10]; 4070 nM in the experiment on PC-3; 2880 nM in the experiment with Malme-3M. Further, the concentration for 50% growth inhibition (GI50) was 1550 nM with SW-620; 7410 nM in the experiment on SK-OV-3; 2290 nM with RPMI-8226 [21]; 10500 nM in the experiment on TK-10; 1350 nM in the experiment on LOX IMVI [11]; 7760 nM in the experiment on SNB-19 [8].

One may read the GI50 as the concentration at which growth is held to half of that of the control.
